The numbers were not newly measured in US12599677B2, “Targeted PH sensitive liposomes” (Northwestern University, priority 2020, dated 2026), which cites them from elsewhere.

Turning to `C=C1CC[C@@H]2[C@](C)(CO)[C@H](O)CC[C@@]2(C)[C@@H]1C/C=C1/C(=O)OC[C@H]1O` [andrographolide], the solubility in water entry is listed as “low solubility in water”.
